Test results: PubChem BioAssay (NCI)
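Cells were grown in 96-well plates and exposed to each compound for 48 hours at five concentrations; endpoints were interpolated linearly between bracketing concentrations, or set to the highest concentration if not reached. TGI marks complete inhibition of growth.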

How the values were obtained:
Assay in all cases: NCI tumour cell line growth inhibition, 48 h
M14 melanoma = system: M14 melanoma
XF 498 CNS = system: XF 498 CNS
SF-268 CNS = system: SF-268 CNS
OVCAR-8 ovarian = system: OVCAR-8 ovarian
DMS 114 small cell lung = system: DMS 114 small cell lung
NCI-H226 lung = system: NCI-H226 lung
MALME-3M melanoma = system: MALME-3M melanoma
HCC-2998 colon = system: HCC-2998 colon
CAKI-1 renal = system: CAKI-1 renal
NCI-H23 lung = system: NCI-H23 lung
SK-MEL-28 melanoma = system: SK-MEL-28 melanoma
EKVX NSCLC = system: EKVX NSCLC
OVCAR-5 ovarian = system: OVCAR-5 ovarian
HOP-18 NSCLC = system: HOP-18 NSCLC
NCI-H460 lung = system: NCI-H460 lung
HL-60(TB) leukemia = system: HL-60(TB) leukemia
SK-OV-3 ovarian = system: SK-OV-3 ovarian
SF-539 CNS = system: SF-539 CNS
HCT-116 colon = system: HCT-116 colon
DMS 273 small cell lung = system: DMS 273 small cell lung
LXFL 529 NSCLC = system: LXFL 529 NSCLC
TK-10 renal = system: TK-10 renal
LOX IMVI melanoma = system: LOX IMVI melanoma
SNB-19 CNS = system: SNB-19 CNS
OVCAR-4 ovarian = system: OVCAR-4 ovarian
HOP-62 NSCLC = system: HOP-62 NSCLC
M19-MEL melanoma = system: M19-MEL melanoma
UO-31 renal = system: UO-31 renal
DLD-1 colon = system: DLD-1 colon
CCRF-CEM leukemia = system: CCRF-CEM leukemia
UACC-257 melanoma = system: UACC-257 melanoma
A549 NSCLC = system: A549 NSCLC
SNB-78 CNS = system: SNB-78 CNS
K-562 leukemia = system: K-562 leukemia
786-0 renal = system: 786-0 renal
SF-295 CNS = system: SF-295 CNS
U251 CNS = system: U251 CNS
IGROV1 ovarian = system: IGROV1 ovarian
NCI-H522 lung = system: NCI-H522 lung
HCT-15 colon = system: HCT-15 colon
OVCAR-3 ovarian = system: OVCAR-3 ovarian
HOP-92 NSCLC = system: HOP-92 NSCLC
RXF-631 renal = system: RXF-631 renal
COLO 205 colon = system: COLO 205 colon
SK-MEL-2 melanoma = system: SK-MEL-2 melanoma
HT29 colon = system: HT29 colon
SN12C renal = system: SN12C renal
RPMI-8226 leukemia = system: RPMI-8226 leukemia
UACC-62 melanoma = system: UACC-62 melanoma
A498 renal = system: A498 renal
MOLT-4 leukemia = system: MOLT-4 leukemia
KM12 colon = system: KM12 colon
SW-620 colon = system: SW-620 colon
ACHN renal = system: ACHN renal
KM20L2 colon = system: KM20L2 colon

Measured: TGI

CCOC(=O)C12CCCC1(O)N(NC(N)=O)C(C)=C2C(=O)OC (stereo not given)
> 100 µM: all assays above
